Assay: dissolution test of metal complexes in protic polar solvents
Format: physicochemical
Parameters: key to dissolution test, 7.5 g/L: a case where an undissolved remnant was present was evaluated as “X”; a case where a slight undissolved remnant was present was evaluated as “Δ”; a case of complete dissolution was evaluated as “ο”
Experimental: The metal complexes obtained in [1] were each dissolved in a protic polar solvent shown in Table 1 to produce a liquid material for constructing the electron transport layer of an organic electroluminescent element.
For example, Metal complex L101-Cs was dissolved in 1-heptanol to prepare alcohol solutions of 7.5 g/L to 15 g/L.
In Table 1, a case where an undissolved remnant was present was evaluated as “X”, a case where a slight undissolved remnant was present was evaluated as “Δ”, and a case of complete dissolution was evaluated as “ο”.

Structure (SMILES) | dissolution test, 7.5 g/L (1-Heptanol) | dissolution test, 15 g/L (1-Heptanol) | also measured
Oc1cccc2c1nc(-c1ccccc1)n2-c1ccc2ccc3cccnc3c2n1 [L102-Cs] | ○ |  | 
Oc1cccc2c1nc(-c1ccccc1)n2-c1cccc(-c2ccc3ccc4cccnc4c3n2)c1 [L101-Rb] | ○ |  | 
Oc1ccc(-c2ccc3ccc4cccnc4c3n2)c2c1nc(-c1ccccc1)n2-c1ccccc1 [L103-Cs] | ○ |  | 
O=P(c1ccccc1)(c1ccc2ccc3cccnc3c2n1)c1ccc(O)c2c1oc1cccnc12 (stereo not drawn) [L302-Rb] | ○ | ○ | 
Oc1cccc2c1nc(-c1ccccc1)n2-c1cccc(-c2ccc3ccc4cccnc4c3n2)c1 [L101-Cs] | ○ |  | 
O=P(c1ccccc1)(c1ccc2ccc3cccnc3c2n1)c1ccc(O)c2c1oc1cccnc12 (stereo not drawn) [L302-Li] | ○ | ○ | 
Oc1cccc2oc3cc(-c4ccc5ccc6cccnc6c5n4)cnc3c12 [L301-Cs] | Δ |  | dissolution test, 5 g/L (1-Heptanol, 5 g/L): ○; dissolution test, 7.5 g/L (2-Methoxyethanol): ○; dissolution test, 15 g/L (2-Methoxyethanol): ○
O=P(c1ccccc1)(c1ccccc1)c1ccc2ccc3ccc(-c4ccc(O)c5c4oc4cccnc45)nc3c2n1 [L303-Cs] | ○ |  | 
O=P(c1ccccc1)(c1ccc2ccc3cccnc3c2n1)c1ccc(O)c2c1oc1cccnc12 (stereo not drawn) [L302-Cs] | ○ | ○ | 
